SMILES strings stand for the structures. Values joined by “and” are separate entries in the source; they are usually repeats but may differ in a detail not shown here. Equal values may be shown once.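 Following 48 hours of exposure in 96-well plates, responses at five concentrations were used to interpolate endpoints linearly. GI50: concentration for 50% inhibition of growth. The concentration for full growth arrest is given as TGI.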 Where only a bound is given, the exact number is not on record here.

From PubChem BioAssay (NCI) come the findings set out here.

Test systems include T-47D breast; MDA-MB-435; PC-3 prostate; BT-549 breast; MDA-MB-231 breast.
What all share (experiment): growth of human tumour cells (NCI), 48 h

On to `CC(C)C[C@@H]1NC(=O)[C@@H]2CCCN2C(=O)[C@@H]2CCCN2C(=O)[C@H](CC(C)C)NC(=O)[C@H](CO)NC(=O)[C@H](CCCCN)NC(=O)[C@H]([C@H](C)O)NC(=O)[C@@H]2CCCC[C@@H](NC1=O)C(=O)N[C@@H](Cc1ccccc1)C(=O)N1CCC[C@H]1C(=O)N[C@@H](CC(=O)O)C(=O)NCC(=O)N[C@@H](CCCN=C(N)N)C(=O)N2`, for which the GI50 in the assay with T-47D breast, in the assay on MDA-MB-435, in the assay with PC-3 prostate, with BT-549 breast and in the assay with MDA-MB-231 breast was greater than 50 µM throughout. Besides, the TGI in the assay on T-47D breast, with MDA-MB-435, in the assay on PC-3 prostate, with BT-549 breast and with MDA-MB-231 breast was greater than 50 µM each time.
For `C=CC(=O)Nc1cccc(C)c1Nc1ncc2cc(-c3c(Cl)c(OC)cc(OC)c3Cl)ccc2n1`, the GI50 with T-47D breast was 1.64 µM; in the assay with MDA-MB-435 it was 4.14 µM; in the assay with PC-3 prostate, 2.09 µM; in the assay with BT-549 breast, 1.64 µM; in the assay with MDA-MB-231 breast, 4.02 µM. The TGI with T-47D breast was greater than 100 µM; with MDA-MB-435, 17.4 µM; in the assay with PC-3 prostate it was 23.3 µM; in the assay with BT-549 breast, 9.34 µM; with MDA-MB-231 breast, 46.4 µM.
With `CN(C)c1ccc(O)c2c1C[C@H]1C[C@H]3[C@H](N(C)C)C(=O)C(C(N)=O)=C(O)[C@@]3(O)C(=O)C1=C2O`, the GI50 in the assay on T-47D breast is 5.29 µM; in the assay with MDA-MB-435, 5.18 µM; in the assay on PC-3 prostate, 6.61 µM; with BT-549 breast, 4.14 µM; with MDA-MB-231 breast, 10.5 µM. Moreover, the TGI in the assay on T-47D breast was greater than 100 µM; with MDA-MB-435, 33.2 µM; in the assay with PC-3 prostate, 93.2 µM; with BT-549 breast it was 20.1 µM; in the assay with MDA-MB-231 breast, 43.6 µM.
As for `Cc1ccc(S(=O)(=O)Nc2nc3ccccc3nc2Nc2ccc3nsnc3c2)cc1`, the GI50 with T-47D breast is 3.34 µM and 3.47 µM; in the assay with MDA-MB-435 it was 4.09 µM and 3.15 µM; in the assay on PC-3 prostate, 3.22 µM and 2.91 µM; in the assay on BT-549 breast, 4.25 µM and 3.42 µM; with MDA-MB-231 breast, 6.58 µM and 7.37 µM. Moreover, the TGI with T-47D breast was greater than 100 µM; in the assay with MDA-MB-435, greater than 100 µM; in the assay on PC-3 prostate it was greater than 100 µM; in the assay on BT-549 breast, 26.3 µM and > 29.6 µM; with MDA-MB-231 breast, 26.6 µM and > 100 µM.
Take `COC(=O)[C@@]1(O)C[C@H]2O[C@]1(C)n1c3ccccc3c3c4c(c5c6ccccc6n2c5c31)C(=O)NC4`: the GI50 is 0.0805 µM with T-47D breast; 0.0745 µM in the assay on MDA-MB-435; 0.251 µM with PC-3 prostate; 0.295 µM with BT-549 breast; 0.429 µM with MDA-MB-231 breast. The TGI turned out to be 2.05 µM in the assay on T-47D breast; 1.6 µM with MDA-MB-435; 2.95 µM in the assay on PC-3 prostate; 1.91 µM in the assay on BT-549 breast; 2.88 µM with MDA-MB-231 breast.
For `O=C(/C=C/c1ccc(C(F)(F)F)cc1)c1ccc(Nc2nc(NCCO)nc(N3CCOCC3)n2)cc1`, the GI50 with T-47D breast was 2.28 µM; in the assay on MDA-MB-435, 2.23 µM; with PC-3 prostate, 2.24 µM; with BT-549 breast, 1.56 µM; with MDA-MB-231 breast, 2.69 µM. For the same compound, the TGI in the assay on T-47D breast was determined as 7.77 µM; in the assay with MDA-MB-435, 5.35 µM; in the assay with PC-3 prostate, 7.83 µM; in the assay with BT-549 breast it was 3.09 µM; in the assay with MDA-MB-231 breast, 9.74 µM.
With `COc1ccc2nc(C)cc(Nc3ccccc3O)c2c1`, the GI50 in the assay with T-47D breast was 32.8 µM; in the assay with MDA-MB-435, 18.1 µM; in the assay with PC-3 prostate, 29.9 µM; in the assay with BT-549 breast it was 37.1 µM; with MDA-MB-231 breast, 27.9 µM. Moreover, the TGI in the assay on T-47D breast was 96.8 µM; in the assay with MDA-MB-435 it was 45.4 µM; in the assay with PC-3 prostate it was greater than 100 µM; with BT-549 breast, greater than 100 µM; in the assay with MDA-MB-231 breast it was greater than 100 µM.
`N#CC1=C(N)Oc2c(sc3c(F)cccc23)C1c1ccc(F)cc1` (stereo not drawn): the GI50 in the assay on T-47D breast is 0.61 µM; with MDA-MB-435, 0.212 µM; with PC-3 prostate, 0.892 µM; in the assay on BT-549 breast, 0.604 µM; with MDA-MB-231 breast it was 1.44 µM. In addition, the TGI was determined as 26.9 µM in the assay with T-47D breast; 0.631 µM with MDA-MB-435; 16.2 µM in the assay with PC-3 prostate; 14.2 µM in the assay on BT-549 breast; 11.5 µM with MDA-MB-231 breast.
For the compound `CS(=O)(=O)Nc1cc(-c2ccc3ncnc(Nc4ccc5c(cnn5Cc5ccccc5F)c4)c3c2)cnc1Cl`, the GI50 was 0.367 µM in the assay with T-47D breast; 2.35 µM in the assay with MDA-MB-435; 1.31 µM in the assay on PC-3 prostate; 1.57 µM in the assay with BT-549 breast; 1.51 µM in the assay on MDA-MB-231 breast. The TGI was 3.14 µM with T-47D breast; 8.32 µM in the assay with MDA-MB-435; greater than 23.6 µM in the assay with PC-3 prostate; 8.73 µM in the assay on BT-549 breast; greater than 100 µM with MDA-MB-231 breast.
As for `CC1/C(=N/Nc2ccc([N+](=O)[O-])cc2)CC2C3(C)CCC2(C(C)C(=O)O)C(=O)C13` (stereo not drawn), the GI50 is 4.14 µM in the assay on T-47D breast; 27.4 µM in the assay on MDA-MB-435; 34.4 µM with PC-3 prostate; 12.3 µM in the assay with BT-549 breast; 4.06 µM with MDA-MB-231 breast. In addition, the TGI in the assay on T-47D breast, in the assay on MDA-MB-435, in the assay on PC-3 prostate, in the assay with BT-549 breast and in the assay on MDA-MB-231 breast was greater than 100 µM throughout.
In the case of `COC(=O)c1cc2oc(/C=C3\SC(=S)N(NC(C)=O)C3=O)cc2n1Cc1ccccc1`, the GI50 in the assay with MDA-MB-435 is 1.1 µM; in the assay with PC-3 prostate it was 1.61 µM; in the assay on BT-549 breast, 3.34 µM; in the assay on MDA-MB-231 breast, 9.02 µM. Further, the TGI with MDA-MB-435 was determined as 4.02 µM; in the assay on PC-3 prostate, 9.82 µM; in the assay with BT-549 breast, 28.7 µM; in the assay on MDA-MB-231 breast, 17.4 µM.
As for `CC1=C(C(=O)Nc2ccc(F)c(Cl)c2)C(c2cccc(Oc3ccccc3)c2)NC(=O)N1` (stereo not drawn), the GI50 was 15.7 µM in the assay on T-47D breast; 18.8 µM in the assay on MDA-MB-435; 10.5 µM in the assay with PC-3 prostate; 15.3 µM in the assay on BT-549 breast; 16 µM in the assay with MDA-MB-231 breast. The TGI in the assay on T-47D breast is 34.6 µM; with MDA-MB-435 it was 39.8 µM; in the assay on PC-3 prostate, 22.3 µM; in the assay on BT-549 breast it was 31.1 µM; in the assay with MDA-MB-231 breast it was 30.3 µM.
As for `C=C1CC[C@@H]2[C@](C)(COC(C)=O)[C@H](OC(C)=O)CC[C@@]2(C)[C@@H]1C/C=C1/C(=O)OC[C@H]1OC(C)=O`, the GI50 in the assay on T-47D breast was 2.86 µM; in the assay on MDA-MB-435 it was 2.63 µM; with PC-3 prostate it was 6.07 µM; with BT-549 breast it was 2.29 µM; in the assay with MDA-MB-231 breast, 12.5 µM. The TGI with T-47D breast came to 13.8 µM; with MDA-MB-435, 10.1 µM; in the assay on PC-3 prostate, 19.9 µM; with BT-549 breast, 5.63 µM; in the assay on MDA-MB-231 breast, 27.1 µM.
